What all share (assay): Inhibition of iodoacetamide probe labeling of CRBN cysteines, cell lysate (Table 3A)
Format in all cases: binding

Assay [1] has as its target T1, CRBN Cys318 (Homo sapiens, UniProt Q96SW2).
T1 construct: endogenous in cells
The note with it: for inhibition at 7.8 µM: 7.8 micromolar; for inhibition at 500 µM: 500 micromolar. How it is done:
(§1) “X@Y” means that x % inhibition of iodoacetamide probe labeling was observed by treatment of cell lysate with the give compound in each row of the table for 1 h at a concentration of y micromolar. There was consistently high inhibition at C318 in addition to C287, which can be attributed to an allosteric inhibition.

Assay [2] addresses T2, CRBN Cys188 (Homo sapiens, UniProt Q96SW2).
T2 construct: endogenous in cells
The note with it: for inhibition at 125 µM: 125 micromolar. How it is done: as §1

In assay [3] the target is T3, CRBN Cys205 (Homo sapiens, UniProt Q96SW2).
T3 construct: endogenous in cells
T3 sequence (Q96SW2 whole entry): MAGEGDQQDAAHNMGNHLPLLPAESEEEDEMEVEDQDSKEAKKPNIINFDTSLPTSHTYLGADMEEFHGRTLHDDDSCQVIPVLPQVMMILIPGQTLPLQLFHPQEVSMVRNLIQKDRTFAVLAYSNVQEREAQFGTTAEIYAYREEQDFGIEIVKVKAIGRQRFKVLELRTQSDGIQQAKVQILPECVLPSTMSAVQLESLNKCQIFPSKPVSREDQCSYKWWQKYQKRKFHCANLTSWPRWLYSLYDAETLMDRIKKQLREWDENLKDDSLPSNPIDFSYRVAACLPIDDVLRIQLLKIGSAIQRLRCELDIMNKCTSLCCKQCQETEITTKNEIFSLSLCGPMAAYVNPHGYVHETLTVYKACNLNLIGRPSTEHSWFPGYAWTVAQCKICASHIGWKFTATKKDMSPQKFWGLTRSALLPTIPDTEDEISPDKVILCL
To be noted: for inhibition at 500 µM: 500 micromolar; for inhibition at 500 µM / inhibition at 31.2 µM / inhibition at 125 µM: read-out: % inhibition of iodoacetamide probe labeling, Cys205. How it is done:
as §1

The target of assay [4] is T4, CRBN Cys287 (Homo sapiens, UniProt Q96SW2).
T4 construct: endogenous in cells
T4 sequence (Q96SW2 whole entry): as above
The note with it: for inhibition at 7.8 µM: 7.8 micromolar; for inhibition at 500 µM: 500 micromolar; for inhibition at 500 µM / inhibition at 31.2 µM / inhibition at 125 µM / inhibition at 2 µM / inhibition at 0.49 µM: read-out: % inhibition of iodoacetamide probe labeling, Cys287. On the procedure:
as §1

For assay [5], the target named is T5, CRBN Cys366 (Homo sapiens, UniProt Q96SW2).
T5 construct: endogenous in cells
T5 sequence (Q96SW2 whole entry): as above
On the procedure: as §1

Assay [6] concerns the target T6, CRBN Cys234 (Homo sapiens, UniProt Q96SW2).
T6 construct: endogenous in cells
To be noted: for inhibition at 500 µM: 500 micromolar; for inhibition at 500 µM / inhibition at 31.2 µM / inhibition at 125 µM: read-out: % inhibition of iodoacetamide probe labeling, Cys234. How it is done:
as §1

Assay [7] has as its target T7, CRBN Cys219 (Homo sapiens, UniProt Q96SW2).
T7 construct: endogenous in cells
The note with it: for inhibition at 500 µM: 500 micromolar. How it is done: as §1

Where [8] appears, read: cell lysate, 1 h, read-out: % inhibition of iodoacetamide probe labeling, Cys318.
Setting [9] is: cell lysate, 1 h, read-out: % inhibition of iodoacetamide probe labeling, Cys219.
[10] abbreviates: read-out: % inhibition of iodoacetamide probe labeling, Cys219.
[11] abbreviates: 31.2 micromolar, cell lysate, 1 h.
[12] abbreviates: 0.12 micromolar, cell lysate, 1 h.
[13] abbreviates: 2.0 micromolar, cell lysate, 1 h.
Setting [14] is: 7.8 micromolar, cell lysate, 1 h.
Setting [15] is: 125 micromolar, cell lysate, 1 h.

SMILES strings stand for the structures. Where two headings read alike, the source gives them in different places.

One may read the inhibition as the change of the read-out against control, counted positive when it falls.

T6 sequence (Q96SW2 whole entry): as above
T2 sequence (Q96SW2 whole entry): as above
T7 sequence (Q96SW2 whole entry): as above
T1 sequence (Q96SW2 whole entry): as above

For the molecule `C=CC(=O)N1CC(Oc2ccc(Cl)cc2)C1` [Example A3], the inhibition at 7.8 µM stood at 21% in assay [1] (cell lysate, 1 h) and 12% in assay [4] (cell lysate, 1 h). The inhibition at 500 µM in assay [1] (setting [8]) was 85%; in assay [2] (500 micromolar, cell lysate, 1 h), 3%; in assay [3] (cell lysate, 1 h), 15%; in assay [4] (cell lysate, 1 h), 96%; in assay [6] (cell lysate, 1 h), 31%; in assay [7] (setting [9]) it was 40%. Further, the inhibition at 31.2 µM is 35% in assay [1] (read-out: % inhibition of iodoacetamide probe labeling, Cys318, 31.2 micromolar, cell lysate, 1 h); 7% in assay [3]; 51% in assay [4]; 6% in assay [6]; 19% in assay [7] (setting [10]). The inhibition at 125 µM in assay [1] (read-out: % inhibition of iodoacetamide probe labeling, Cys318, 125 micromolar, cell lysate, 1 h) is 64%; in assay [2] (cell lysate, 1 h), 5%; in assay [3], 21%; in assay [4], 80%; in assay [5] (read-out: % inhibition of iodoacetamide probe labeling, Cys366), -6%; in assay [6], 19%. Also, in assay [7] (setting [10]), the inhibition at 125 µM is 8%.

Take `COc1ccccc1-c1cc(C#N)cc(OC2CCN(C(=O)/C(C#N)=C/C(C)(C)C)CC2)c1` [Example A4]: in assay [4] (cell lysate, 1 h), the inhibition at 7.8 µM was 96% and the inhibition at 500 µM was determined as 99%. In addition, the inhibition at 31.2 µM in assay [4] (setting [11]) stood at 97%. Further, in assay [4], the inhibition at 125 µM was determined as 99%.

With `COc1ccccc1-c1cc(OC2CCN(C(=O)/C(C#N)=C/C(C)C)CC2)cc(C(N)=O)c1` [Example A5], the figures for the inhibition at 0.12 µM in assay [1] (setting [12]) and in assay [4] (setting [12]) were 77% and 70%, respectively. In addition, the inhibition at 2 µM is 85% in assay [1] (setting [13]); 22% in assay [2] (setting [13]); 19% in assay [3] (setting [13]); 93% in assay [4] (setting [13]); 19% in assay [6] (setting [13]); 22% in assay [7] (setting [10]). Besides, the inhibition at 7.8 µM in assay [1] (cell lysate, 1 h) was 93%; in assay [2] (setting [14]), 13%; in assay [3] (setting [14]), 36%; in assay [4] (cell lysate, 1 h), 96%; in assay [5] (setting [14]), -22%; in assay [6] (setting [14]) it was 35%. Further, the inhibition at 7.8 µM in assay [7] (setting [14]) was determined as 13%. Moreover, the inhibition at 31.2 µM stood at 94% in assay [1] (31.2 micromolar, cell lysate, 1 h, read-out: % inhibition of iodoacetamide probe labeling, Cys318); 13% in assay [2] (setting [11]); 29% in assay [3] (setting [11]); 98% in assay [4] (setting [11]); 37% in assay [6] (setting [11]). Moreover, the inhibition at 125 µM in assay [1] (125 micromolar, cell lysate, 1 h, read-out: % inhibition of iodoacetamide probe labeling, Cys318) was 95%; in assay [2] (cell lysate, 1 h), 7%; in assay [3] (setting [15]) it was 37%; in assay [4] (setting [15]) it was 99%; in assay [6] (setting [15]), 60%; in assay [7] (125 micromolar, cell lysate, 1 h, read-out: % inhibition of iodoacetamide probe labeling, Cys219), 25%. The inhibition at 500 µM in assay [1] (setting [8]) turned out to be 96%; in assay [3] (cell lysate, 1 h), 31%; in assay [4] (cell lysate, 1 h), 99%; in assay [6] (cell lysate, 1 h), 25%; in assay [7] (setting [9]), 13%. For the same molecule, the inhibition at 0.49 µM in assay [1] (read-out: % inhibition of iodoacetamide probe labeling, Cys318, 0.49 micromolar, cell lysate, 1 h) is 76%; in assay [2] (read-out: % inhibition of iodoacetamide probe labeling, Cys188) it was 17%; in assay [4], 83%; in assay [7] (0.49 micromolar, cell lysate, 1 h), 17%.

Regarding `CC(/C=C(\C#N)C(=O)N1CCC(Oc2cccc(C#N)c2)CC1)c1ccccc1` (stereo not shown) [Example A6], in assay [4] (setting [11]), the inhibition at 31.2 µM came out at 82%. Moreover, the inhibition at 125 µM in assay [4] (setting [15]) came out at 94%. The inhibition at 500 µM in assay [4] (cell lysate, 1 h) came out at 95%. In addition, in assay [4], the inhibition at 0.49 µM is 62% and the inhibition at 2 µM stood at 77%.

These data come from patent US20220298213A1, “IN VIVO ENGINEERED CEREBLON PROTEIN” (Vividion Therapeutics, Inc., priority 2018, published 2022).
